Where two headings read alike, the source gives them in different places.
Assays:
[1] = for HPLC Conc./: based on free acid
Text: pH-dependent solubility of the HBI- 3808 sodium salt of Pattern 2 was studied.
pH dependent solubility of the HBI- 3808 sodium salt of Pattern 5 was studied.

[2] = Stability study at 25° C./60% RH, 40° C./75% RH and 60° C. (XRPD, HPLC purity, impurity tracking); conditions: for XRPD: number = sodium salt XRPD Pattern
Text: Stability of HBI-3808 Sodium Salt Pattern 2 was studied over 13 weeks.
Table 2F presents impurity tracking results from a 13-week stability study of HBI-3808 sodium salt of Pattern 2. […]

[3] = 40° C./75% RH (open vial), 2 Weeks
[4] = 40° C./75% RH (open vial), 4 Weeks
[5] = 40° C./75% RH (open vial), 8 Weeks
[6] = 40° C./75% RH (open vial), 13 Weeks
[7] = impurity tracking, 25° C./60% RH, 1 week
[8] = impurity tracking, 25° C./60% RH, 2 weeks
[9] = impurity tracking, 25° C./60% RH, 4 weeks
[10] = impurity tracking, 25° C./60% RH, 8 weeks
[11] = impurity tracking, 25° C./60% RH, 13 weeks
[12] = impurity tracking, 40° C./75% RH, 1 week

CC1CCC2(C(=O)[O-])CCC3(C)C(=CCC4C5(C)CC(O)C(O)C(C)(CO)C5CCC43C)C2C1(C)O.[Na+] (stereo not shown) [HBI-3808 sodium salt of Pattern 2, sodium salt of 23-hydroxytormentic acid]
final Measured pH ([1]; FaSSGF): 9.35 | HPLC Conc./ ([1]; FaSSGF): >221.2 mg/mL | concentration ([1]; pH 1.2): < 0.1 mg/mL | HPLC Conc./ ([1]; target pH 1.2 chloride buffer, start 200 mg/mL (ethanolamine salt 100 mg/mL)): <0.005 mg/mL | HPLC Conc./ ([1]; target pH 3.0 acetate buffer): 0.006 mg/mL | HPLC Conc./ ([1]; target pH 4.0 acetate buffer): <0.005 mg/mL | HPLC Conc./ ([1]; target pH 6.8 phosphate buffer): 0.4 mg/mL | HPLC Conc./ ([1]; target pH 8.0 phosphate buffer): 15.3 mg/mL | HPLC/ % area ([2]; 25° C./60% RH (open vial), 1 Week): 97.3 % area | HPLC/ % area ([2]; 25° C./60% RH (open vial), 2 Weeks): 97.2 % area | HPLC/ % area ([2]; 25° C./60% RH (open vial), 4 Weeks): 97.3 % area | HPLC/ % area ([2]; 25° C./60% RH (open vial), 8 Weeks): 96.7 % area | HPLC/ % area ([2]; 25° C./60% RH (open vial), 13 Weeks): 97.1 % area | HPLC/ % area ([2]; 40° C./75% RH (open vial), 1 Week): 97.1 % area | HPLC/ % area [2, 3]: 97.0 % area | XRPD [2, 3]: 5 | HPLC/ % area [2, 4]: 97.3 % area | XRPD [2, 4]: 5 | HPLC/ % area [2, 5]: 96.3 % area | XRPD [2, 5]: 5 | HPLC/ % area [2, 6]: 97.0 % area | XRPD [2, 6]: 5 | HPLC/ % area ([2]; 60° C. (closed vial), 1 Week): 97.2 % area | XRPD ([2]; 60° C. (closed vial), 1 Week): 2 | HPLC/ % area ([2]; 60° C. (closed vial), 2 Weeks): 97.3 % area | XRPD ([2]; 60° C. (closed vial), 2 Weeks): 2 | HPLC/ % area ([2]; 60° C. (closed vial), 4 Weeks): 97.3 % area | XRPD ([2]; 60° C. (closed vial), 4 Weeks): 2 | HPLC/ % area ([2]; 60° C. (closed vial), 8 Weeks): 96.4 % area | XRPD ([2]; 60° C. (closed vial), 8 Weeks): 2 | HPLC/ % area ([2]; 60° C. (closed vial), 13 Weeks): 97.3 % area | change in chemical purity by HPLC over the stability study ([2]; all conditions (25° C./60% RH; 40° C./75% RH; 60° C.), 13 weeks (Pattern 5: 4 weeks)): no significant decrease in chemical purity | RRT 0.801 [2, 7]: 0.10 % area | RRT 0.970 [2, 7]: 0.10 % area | RRT 1.000 (HBI-3808) [2, 7]: 97.31 % area | RRT 1.025 (Isomer of HBI-3808) [2, 7]: 2.48 % area | Total Impurities [2, 7]: 2.69 % area | RRT 0.970 [2, 8]: 0.12 % area | RRT 1.000 (HBI-3808) [2, 8]: 97.29 % area | RRT 1.025 (Isomer of HBI-3808) [2, 8]: 2.39 % area | RRT 1.935 [2, 8]: 0.20 % area | Total Impurities [2, 8]: 2.71 % area | RRT 0.970 [2, 9]: 0.11 % area | RRT 1.000 (HBI-3808) [2, 9]: 97.47 % area | RRT 1.025 (Isomer of HBI-3808) [2, 9]: 2.41 % area | Total Impurities [2, 9]: 2.53 % area | RRT 0.970 [2, 10]: 0.10 % area | RRT 1.000 (HBI-3808) [2, 10]: 96.99 % area | RRT 1.025 (Isomer of HBI-3808) [2, 10]: 2.51 % area | RRT 1.767 [2, 10]: 0.29 % area | Total Impurities [2, 10]: 3.01 % area | RRT 0.801 [2, 11]: 0.12 % area | RRT 1.000 (HBI-3808) [2, 11]: 97.33 % area | RRT 1.025 (Isomer of HBI-3808) [2, 11]: 2.37 % area | RRT 1.935 [2, 11]: 0.19 % area | Total Impurities [2, 11]: 2.67 % area | RRT 0.801 [2, 12]: 0.10 % area | RRT 0.970 [2, 12]: 0.14 % area

Reference: patent publication US20250326785A1, “SODIUM SALT AND ETHANOLAMINE SALT OF 23-HYDROXYTORMENTIC ACID” (HUYABIO International, LLC, priority 2024, published 2025)
